Measured values: ChEMBL document CHEMBL1154827, “Acetylcholinesterase inhibitory pyridine alkaloids of the leaves of Senna multijuga” (J Nat Prod, 2010)

Experiments:
[1] = target: Acetylcholinesterase (Electrophorus electricus) (UniProt O42275); assay: Inhibition of electric eel AChE assessed as purple zones of inhibition after 20 mins by TLC bioautography
[2] = target: Acetylcholinesterase (Electrophorus electricus) (UniProt O42275); assay: Inhibition of electric eel AChE at 350 […] by microplate assay

Acetylcholinesterase (Electrophorus electricus), sequence (O42275 24-633 limits assumed): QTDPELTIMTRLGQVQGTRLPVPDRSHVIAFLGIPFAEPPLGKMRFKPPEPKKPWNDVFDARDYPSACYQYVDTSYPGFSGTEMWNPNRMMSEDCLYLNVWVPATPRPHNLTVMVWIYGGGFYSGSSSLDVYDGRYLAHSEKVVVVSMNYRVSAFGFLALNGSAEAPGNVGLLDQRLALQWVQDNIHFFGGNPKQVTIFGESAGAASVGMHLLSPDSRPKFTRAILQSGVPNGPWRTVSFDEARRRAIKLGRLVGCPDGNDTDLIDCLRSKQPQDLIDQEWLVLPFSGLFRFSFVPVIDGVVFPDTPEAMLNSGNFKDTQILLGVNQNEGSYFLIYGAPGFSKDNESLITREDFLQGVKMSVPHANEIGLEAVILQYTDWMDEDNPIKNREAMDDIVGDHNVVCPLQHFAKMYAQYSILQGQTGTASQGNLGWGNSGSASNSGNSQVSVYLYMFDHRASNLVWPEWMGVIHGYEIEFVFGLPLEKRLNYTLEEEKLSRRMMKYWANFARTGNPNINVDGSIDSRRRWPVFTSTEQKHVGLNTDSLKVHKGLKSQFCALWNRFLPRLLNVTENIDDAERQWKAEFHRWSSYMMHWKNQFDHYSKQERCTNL

| Compound | INH [1] [µg] | inhibition [2] [%] |
| --- | --- | --- |
| CNC(=O)Oc1ccc2c(c1)[C@]1(C)CCN(C)[C@@H]1N2C | 0.05 | 87 |
| C[C@@H]1O[C@@H](OC[C@H]2O[C@@H](Oc3c(-c4ccc(O)c(O)c4)oc4cc(O)cc(O)c4c3=O)[C@H](O)[C@@H](O)[C@@H]2O)[C@H](O)[C@H](O)[C@H]1O | > 100 |  |
| CCCCCC(=O)CCCCCCc1ccc(O)c(C)n1 | 0.75 | 13 |
| Cc1nc(CCCCCCC(=O)CCCCCO)ccc1O | 0.18 | 30 |
